Experiments:
[1] = test system: r(CUG)12-MBNL1 complex; assay: Inhibition of the r(CUG)12-MBNL1 complex measured by TR-FRET; format: biochemical; settings: Table M; 80 nM RNA, 60 nM MBNL1-His6
[2] = test system: MBNL1 exon 5 inclusion in DM1 myotubes; assay: Myotube splicing rescue assay (MBNL1 exon 5 inclusion); format: cell-based, human; settings: 48-hour incubation

SMILES	IC50 [1] [µM]	MBNL1 % splicing rescue at 10 μM [2] [%]	MBNL1 % splicing rescue at 1 μM [2] [%]
CN(C)CCCOc1ccc2nc(-c3ccc(-c4nc5ccc(OCCCN(C)C)cc5[nH]4)c(C#N)c3)[nH]c2c1 [Compound 268, 2,5-bis(6-(3-(dimethylamino)propoxy)-1H-benzo[d]imidazol-2-yl)benzonitrile]	9.6	73.6	–
COc1cc(-c2nc3ccc(C(=O)OCCN(C)C)cc3[nH]2)c(OC)cc1-c1nc2ccc(C(=O)OCCN(C)C)cc2[nH]1 [Compound 269, bis(2-(dimethylamino)ethyl) 2,2′-(2,5-dimethoxy-1,4-phenylene)bis(1H-benzo[d]imidazole-6-carboxylate)]	3.11	55.6	–
CN(C)CCOC(=O)c1ccc2nc(-c3ccc(-c4nc5ccc(C(=O)OCCN(C)C)cc5[nH]4)c(F)c3)[nH]c2c1 [Compound 270, bis(2-(dimethylamino)ethyl) 2,2′-(2-fluoro-1,4-phenylene)bis(1H-benzo[d]imidazole-6-carboxylate)]	5.81	−19.5	–
CN(C)CCCOc1c(F)cc2nc(-c3ccc(-c4nc5cc(F)c(OCCCN(C)C)c(F)c5[nH]4)cc3)[nH]c2c1F [Compound 273]	6.1	−15.3	–
CN(C)CCNS(=O)(=O)c1ccc2nc(-c3ccc(-c4nc5ccc(S(=O)(=O)NCCN(C)C)cc5[nH]4)cc3)[nH]c2c1 [Compound 275, 2,2′-(1,4-phenylene)bis(N-(2-(dimethylamino)ethyl)-1H-benzo[d]imidazole-6-sulfonamide)]	24.3	−6.5	–
CN(C)CCCOc1ccc2nc(-c3ccc(-c4nc5ccc(OCCCN(C)C)cc5[nH]4)nc3)[nH]c2c1 [Compound 276, 3,3′-(2,2′-(pyridine-2,5-diyl)bis(3H-benzo[d]imidazole-5,2-diyl))bis(oxy)bis(N,N-dimethylpropan-1-amine)]	9.7	63.1	–
CN(C)CCCOc1ccc2nc(-c3cc(O)c(-c4nc5ccc(OCCCN(C)C)cc5[nH]4)cc3O)[nH]c2c1 [Compound 278]	38.1	48.2	79.7
COc1cc(-c2nc3ccc(OCCCN(C)C)cc3[nH]2)c(OC)cc1-c1nc2ccc(OCCCN(C)C)cc2[nH]1 [Compound 290]	11.1	97.2	–
COc1cc(-c2nc3ccc(OCCCN(C)C)cc3[nH]2)ccc1-c1nc2ccc(OCCCN(C)C)cc2[nH]1 [Compound 293]	18.2	71.0	–
N=C(N)CCCOc1ccc2nc(-c3ccc(-c4nc5ccc(OCCCC(=N)N)cc5[nH]4)cc3)[nH]c2c1 [Compound 297]	9.7	−4.4	–
COc1cc(-c2nc3ccc(C(=O)NCCN(C)C)cc3[nH]2)c(OC)cc1-c1nc2cc(OCCCN(C)C)ccc2[nH]1 [Compound 298]	23.5	−41.8	–
COc1cc(-c2nc3ccc(C(=O)NCCCN(C)C)cc3[nH]2)c(OC)cc1-c1nc2cc(OCCCN(C)C)ccc2[nH]1 [Compound 299]	10.3	−34.9	–
CN(C)CCCOc1cc2[nH]c(-c3ccc(-c4nc5cc(F)c(OCCCN(C)C)cc5[nH]4)c(F)c3)nc2cc1F [Compound 301, (3-[[2-(4-[6-[3-(dimethylamino)propoxy]-5-fluoro-1H-1,3-benzodiazol-2-yl]-3-fluorophenyl)-5-fluoro-1H-1,3-benzodiazol-6-yl]oxy]propyl)dimethylamine]	5.3	19.4	–
COc1cc(-c2nc3ccc(SCCCN(C)C)cc3[nH]2)c(OC)cc1-c1nc2cc(SCCCN(C)C)ccc2[nH]1 [Compound 302, 3-((2-(4-(6-((3-(dimethylamino)propyl)thio)-1H-benzo[d]imidazol-2-yl)-2,5-dimethoxyphenyl)-1H-benzo[d]imidazol-5-yl)thio)-N,N-dimethylpropan-1-amine]	28	32.3	–
CN(C)CCCOc1cc2nc(-c3ccc(-c4nc5cc(Cl)c(OCCCN(C)C)cc5[nH]4)cc3)[nH]c2cc1Cl [Compound 304, (3-[[6-chloro-2-(4-[5-chloro-6-[3-(dimethylamino)propoxy]-1H-1,3-benzodiazol-2-yl]phenyl)-1H-1,3-benzodiazol-5-yl]oxy]propyl)dimethylamine]	5.8	−42.3	–
CN(C)CCCOc1ccc2nc(-c3ccc(-c4nc5ccc(OCCCN(C)C)cc5[nH]4)c4c3OCO4)[nH]c2c1 [Compound 305]	7.6	58.8	–
CN(C)CCCSc1ccc2nc(-c3ccc(-c4nc5ccc(SCCCN(C)C)cc5[nH]4)c4c3OCO4)[nH]c2c1 [Compound 306]	12.1	11.7	–
COc1cc(-c2nc3ccc(OCCCN(C)C)cc3[nH]2)c(OCc2ccccc2)cc1-c1nc2cc(OCCCN(C)C)ccc2[nH]1 [Compound 307, 3-((2-(2-(benzyloxy)-4-(5-(3-(dimethylamino)propoxy)-1H-benzo[d]imidazol-2-yl)-5-methoxyphenyl)-1H-benzo[d]imidazol-6-yl)oxy)-N,N-dimethylpropan-1-amine]	15.8	18.1	–
COc1cc(-c2nc3ccc(OCCCN(C)C)cc3[nH]2)c(O)cc1-c1nc2cc(OCCCN(C)C)ccc2[nH]1 [Compound 308]	1.8	−24.4	–
CCOc1cc(-c2nc3cc(OCCCN(C)C)ccc3[nH]2)c(OCC)cc1-c1nc2cc(OCCCN(C)C)ccc2[nH]1 [Compound 314, (3-[[2-(4-[5-[3-(dimethylamino)propoxy]-1H-1,3-benzodiazol-2-yl]-2,5-diethoxyphenyl)-1H-1,3-benzodiazol-5-yl]oxy]propyl)dimethylamine]	19.8	22.5	–
CN1CCC(COc2ccc3nc(-c4ccc(-c5nc6ccc(OCC7CCN(C)CC7)cc6[nH]5)c(F)c4)[nH]c3c2)CC1 [Compound 315]	6.1	88.4	–
CN(C)CCCOc1ccc2[nH]c(-c3ccc(-c4nc5cc(OCCCN(C)C)ccc5[nH]4)c4c3OCCO4)nc2c1 [Compound 316]	20.7	87.1	–
C#CCCCCN(C)CCNC(=O)CCCOc1ccc2[nH]c(-c3ccc(-c4nc5cc(OCCCN(C)C)ccc5[nH]4)cc3)nc2c1 [Compound 320]	16.7	88.2	–
CN1CCN(c2ccc(-c3nc4cc(-c5ccc6[nH]c(-c7ccc(N8CCN(C)CC8)cc7)nc6c5)ccc4[nH]3)cc2)CC1 [Compound 334]	14.2	–	73.1
CN1CCC(COc2ccc(-c3nc4cc(-c5ccc6[nH]c(-c7ccc(OCC8CCN(C)CC8)cc7)nc6c5)ccc4[nH]3)cc2)CC1 [Compound 336]	8.03	77.0	59.0
CN1CCN(Cc2ccc(-c3nc4cc(-c5ccc6[nH]c(-c7ccc(CN8CCN(C)CC8)cc7)nc6c5)ccc4[nH]3)cc2)CC1 [Compound 337]	31.9	73.3	57.2
CN1CCC(NC(=O)c2ccc(-c3nc4cc(-c5ccc6[nH]c(-c7ccc(C(=O)NC8CCN(C)CC8)cc7)nc6c5)ccc4[nH]3)cc2)CC1 [Compound 338]	4.56	−5.3	7.8

Reference: patent US10961202B2, “Bis-benzimidazole compounds and methods of using the same” (THE SCRIPPS RESEARCH INSTITUTE, priority 2017, dated 2021)
